{"source": "patent EP3070175A1", "about": "“TEST FOR DETERMINING SUSCEPTIBILITY OR RESISTANCE TO POLYMYXINS IN ENTEROBACTERIACEAE” (Université de Fribourg, priority 2015, dated 2016)", "test_system": "P. mirabilis", "assay": "MIC determination, broth microdilution in Cation-Adjusted Mueller-Hinton broth (CLSI)", "type": "cell-based, Proteus mirabilis", "settings": "strain Pmir", "protocol": "Determination of MIC values were performed using the reference technique (broth microdilution in Cation-Adjusted Mueller-Hinton broth) according to the CLSI guidelines. Polymyxin B and colistin (Sigma-Aldrich, Saint-Louis) were tested over a range dilution from 0.12 to 128 µg/ml and 5.10^5 CFU/ml of bacteria in each well was used. Following the EUCAST breakpoints (http://www.eucast.org/), strains with a colistin MICs of ≤ 2 µg/ml were categorized as susceptible, although those with MICs of > 2 µg/ml were resistant.\nAll experiments were repeated in triplicate.", "data": [{"substance": "colistin sulphate", "values": [{"measurement": "Colistin resistance", "setting": "EUCAST breakpoints", "value": "+ (those with MICs of > 2 µg/ml were resistant)"}, {"measurement": "Colistin MIC", "setting": "Natural resistance", "value": ">128", "unit": "µg/mL"}]}]}
